One block for each substance: values may come before it.
Legend:
[1] = molecular target: type I PTH/PTH-related peptide receptor (PTH1R), endogenous in primary murine osteoblasts (mouse) (UniProt P41593); experiment: cell-based or functional assay
PTH1 receptor = conditions: Gardella 1996; Sneddon 2004; Bisello 2002; cited from earlier work
[2] = molecular target: T1, AT1A angiotensin receptor (Rattus norvegicus, UniProt P25095); conditions: cited from earlier work
T1 sequence (P25095 1-359): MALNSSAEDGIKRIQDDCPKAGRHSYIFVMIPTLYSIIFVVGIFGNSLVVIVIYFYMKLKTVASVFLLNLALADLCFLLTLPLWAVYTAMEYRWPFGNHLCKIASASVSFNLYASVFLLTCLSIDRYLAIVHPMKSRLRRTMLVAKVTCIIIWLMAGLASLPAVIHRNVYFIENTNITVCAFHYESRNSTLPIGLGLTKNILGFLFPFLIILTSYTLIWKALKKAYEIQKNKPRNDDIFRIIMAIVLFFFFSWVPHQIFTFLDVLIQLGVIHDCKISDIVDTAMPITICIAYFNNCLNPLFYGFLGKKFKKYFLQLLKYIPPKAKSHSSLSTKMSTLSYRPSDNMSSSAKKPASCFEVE

Chain of type I PTH/PTH-related peptide receptor (PTH1R), endogenous in primary murine osteoblasts (mouse) (P41593 27-591): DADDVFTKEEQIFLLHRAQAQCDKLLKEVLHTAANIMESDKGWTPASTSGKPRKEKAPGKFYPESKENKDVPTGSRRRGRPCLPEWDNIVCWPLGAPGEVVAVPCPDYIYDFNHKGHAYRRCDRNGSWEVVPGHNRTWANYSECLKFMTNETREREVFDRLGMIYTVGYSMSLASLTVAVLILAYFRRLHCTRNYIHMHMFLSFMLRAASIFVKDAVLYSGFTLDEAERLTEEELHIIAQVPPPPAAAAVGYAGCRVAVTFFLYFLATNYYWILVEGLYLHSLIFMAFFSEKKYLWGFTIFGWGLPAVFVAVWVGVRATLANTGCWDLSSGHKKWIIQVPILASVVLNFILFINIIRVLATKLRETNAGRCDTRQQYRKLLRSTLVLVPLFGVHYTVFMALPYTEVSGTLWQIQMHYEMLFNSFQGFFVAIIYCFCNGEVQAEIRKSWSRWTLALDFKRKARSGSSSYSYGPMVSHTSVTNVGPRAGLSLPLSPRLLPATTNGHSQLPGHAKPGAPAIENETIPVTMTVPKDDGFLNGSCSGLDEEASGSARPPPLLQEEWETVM

ERK1/2 phosphorylation in WT primary osteoblasts, 1 µM PTH-βarr, 5 min (fold over basal) [1]: 3
Substance: (D-Trp12, Tyr34)-PTH(7-34) (from UniProt P01268 38-65) (peptide)

ERK1/2 phosphorylation in WT primary osteoblasts, 100 nM PTH(1-34), 5 min (fold over basal) [1]: 3
Substance: PTH(1-34) (peptide)

Substance: Trp^l-PTHrP(1-36) (WVSEHQLLHDKGKSIQDLRRRFFLHHLIAEIHTAEI; Parathyroid hormone-related protein; UniProt P12272 37-72, looked up, variant A1W) [PTHrP analog promoting Gs-coupling without β-arrestin recruitment, reference compound]
PTH1 receptor-Gs coupling / cAMP production (PTH1 receptor): promoting Gs-coupling and cAMP production
arrestin-dependent sequestration / β-arrestin recruitment (PTH1 receptor): without inducing β-arrestin recruitment or desensitization

Substance: [Sar1,Ile4,Ile8]SII
G protein-independent/β-arrestin-dependent signaling to ERK1/2 [2]: selectively stimulating G protein-independent/β-arrestin-dependent 7TMR signaling to ERK1/2
